The subject of data set [1] is Staphylococcus aureus ATCC 6538. The experiment in a line: Sanitizing Efficacy/Germicidal and Detergent Sanitizing Action of Disinfectants. Type of data set: cell-based. The conditions noted are these: summary of Table 7, heptanoic acid without coupler. Here is the method:
Sanitizing Efficacy/Germicidal and Detergent Sanitizing Action of Disinfectants—Final Action
This test measures the sanitizing efficacy against Staphylococcus aureus ATCC 6538 and Escherichia coli ATCC 11229 with a 10% milk challenge at a 15 second exposure time. A 10% milk challenge is achieved by adding 90 ml of the test formulation to 10 ml of milk, mixing, and removing 1 ml for a final volume of 99 ml.

Data set [2] is described as follows: Compatibility/stability of the aqueous composition. Particulars: heptanoic acid alone versus with sulfonate coupler. Type of data set: physicochemical.

Data on one compound can be found in patent publication US20030206882A1, “Fatty acid sanitizer” (priority 2002, published 2003).

Consider `CCCCCCC(=O)O` [heptanoic acid], for which, in data set [1], the “antimicrobial efficacy (in words)” value is “satisfactory antimicrobial efficacy”. Also, the “compatibility (stability) of the composition (in words)” value in data set [2] is reported as “less compatibility”.
